Assay results from patent publication US20210292277A1 (priority 2020, published 2021).
pEC50: −log10 of the molar value. “And” between values parts separate entries of the source, which are not always exact repeats. Equal entries are not always repeated.

Legend:
[1] = tested on: COVID-19/SARS-CoV-2 virus; type: cell-based
[2] = tested on: SARS-CoV-2; experiment: microbe, parasite or virus in culture; type: cell-based; conditions: Severe acute respiratory syndrome coronavirus 2; SARS-CoV-2 infected cells, dose response FIG. 3; read-out: EC50 against SARS-CoV-2
[3] = tested on: SARS-CoV-2 viral infection; experiment: Treatment of a patient suffering from COVID-19; type: in vivo; conditions: human patient, intravenous, subcutaneous, or oral, daily for 21 days
[4] = tested on: 17 coronavirus proteases from human and animal coronaviruses; type: cell-based
[5] = tested on: SARS-CoV-2 virus; experiment: Prophylactic treatment of a patient susceptible to COVID-19; type: in vivo; conditions: human patient at risk, daily for 21 days beginning one week prior to possible exposure
[6] = tested on: SARS-CoV-2; experiment: Antiviral efficacy in hamsters challenged intranasally with SARS-CoV-2, S.C. GC376; type: in vivo, hamster; conditions: for trachea PFU: trachea samples
Source text: The hamsters were sacrificed and various tissues were collected for analysis.

[7] = tested on: SARS CoV-2; experiment: Antiviral efficacy of GC376 and REMDESIVIR in golden Syrian hamsters challenged intranasally with SARS-CoV-2, IP; type: in vivo, golden Syrian female hamsters; conditions: for body weights: IP injection for eight days, versus control animals with SARS-CoV-2 alone; for lung PFU: lung samples, days 4 and 14
Source text: The animals were sacrificed at days 4, 8, or 14 following initiation of the experiment and the various tissues were then collected for analysis. Detailed experimental design and experimental parameters can be found in FIG. 9A, FIG. 9B, and FIG. 10.

[8] = CC50 in the structure table of GC543 and GC583 (no method given); type: cell-based; conditions: cells not given

SMILES: CC(C)C[C@H](NC(=O)OCc1ccccc1)C(=O)N[C@@H](C[C@@H]1CCNC1=O)C(O)S(=O)(=O)[O-].[Na+] (stereo partly drawn) [GC376]
- lowering of virus titer ([1]; 5 μM GC376 versus virus solution without GC376): approximately 15 fold
- PFU/ml, average ([1]; virus solution with 5 μM GC376, average of three replicate plates): 2.1×10^6 pfu/ml
- PFU/ml, each replicate plate ([1]; virus solution with 5 μM GC376, individual plates): 2.75×10^6 pfu/ml and 2.25×10^6 pfu/ml and 1.30×10^6 pfu/ml
- pEC50 [2]: ~6.09
- outcome after 21 days of treatment [3]: recovered from the SARS-CoV-2 infection
- activity against coronavirus proteases [4]: activity across all coronaviruses tested, including SARS-CoV-2
- outcome after prophylactic treatment [5]: not have developed COVID-19 or a SARS-CoV-2 infection
- body weight at 10 mg/kg/day and 25 mg/kg/day ([6]; 10 mg/kg/day and 25 mg/kg/day, versus infected controls without GC376): appeared to lose more weight initially, but by the eighth day following initiation of the experiment had a body weight that was similar to the control animals
- lung PFU versus control ([6]; 100 mg/kg/day cohort): had fewer PFUs in their lungs than the control animal, although two animals had more PFUs than the control
- body weights of individual hamsters ([6]; each individual hamster, days 0-8, any dose): trend show for each animal to regain its normal body weight
- trachea PFU ([6]; 100 mg/kg/day group): did show noticeable PFU formation from trachea samples
- trachea PFU ([6]; all groups): most of the animals did not show PFUs from samples taken from the trachea
- body weights [7]: maintained similar body weights to the control animals
- lung PFU [7]: reduction of PFU at days 4 and 14

SMILES: O=C[C@@H](C[C@@H]1CCNC1=O)NC(=O)[C@H](CC1CCCCC1)NC(=O)OCc1ccccc1 [GC543]
- CC50 [8]: > 100 µM

SMILES: O=C[C@@H](C[C@@H]1CCNC1=O)NC(=O)[C@H](CC1CCCCC1)NC(=O)OCc1cccc(Cl)c1 [GC583]
- CC50 [8]: > 100 µM

SMILES: CCC(CC)COC(=O)[C@H](C)N[P@](=O)(OC[C@H]1O[C@@](C#N)(c2ccc3c(N)ncnn23)[C@H](O)[C@@H]1O)Oc1ccccc1 [reference compound]
- body weights [7]: maintained similar body weights to the control animals
- lung PFU [7]: reduction of PFU at days 4 and 14
